The values that follow come from patent publication US3953483A, “17-Nor-6-methyl-steroids” (Takeda Chemical Industries, Ltd., priority 1973, dated 1976).

“Also recorded” adds a separate entry of the source.

One data set concerns anti-androgenic activity. Particulars: known compounds, background; cited from earlier work.
A further data set deals with liver. The conditions noted are these: known compound, background; cited from earlier work.
For data set [1], the system named is seminal vesicles, ventral prostate and dorsal prostates. The experiment in a line: anti-androgenic activity: inhibition of testosterone propionate-induced weight increase of secondary sex structures in castrated male rats, oral dosing. Particulars: for Percent inhibition: Dorsal prostate / Percent inhibition: Seminal vesicles / Percent inhibition: Ventral prostate / Weight of organs: Dorsal prostate / Weight of organs: Seminal vesicles / Weight of organs: Ventral prostate: 5 rats; for Weight of organs: Dorsal prostate / Weight of organs: Seminal vesicles / Weight of organs: Ventral prostate: average ± standard error. The format is in vivo, rats (SD-JCL strain). The method, then: The following is the assay data on the anti-androgenic activity of 6-methylandrosta-4,6-dien-3-one(the test compound), a compound obtainable by the method of this invention. Testing procedure: Male rats of the SD-JCL strain, 21 days of age (body weights 40-55 g.) are castrated and, beginning on the next day, a daily dose of the test compound is suspended in 0.5 ml. of aqueous solvent and orally administered via a gastric catheter once daily, every day excepting Sundays, for a total of 10 times (12 days). Simultaneously with the administration of the test compound, a daily dose of 0.15 mg. of testosterone propionate is dissolved in 0.2 ml. of sesame oil and subcutaneously injected into the dorsal region of the neck.
On the day following the last day of administration, the rats are exsanguinated under ether anaesthesia and the seminal vesicles, ventral prostate and dorsal prostates are weighed. The anti-androgenic potency of the test compound is determined as follows.
dosed with testosterone
- dosed with testosterone
(%) dosed with testosterone

The mark [2] stands for this setting: test compound 9.6mg. × 10 oral + testosterone propionate 0.15mg. × 10 s.c.
Setting [3] is: test compound 38.4mg. × 10 oral + testosterone propionate 0.15mg. × 10 s.c.
Setting [4] is: testosterone propionate 0.15mg. × 10 s.c. alone.

For `C[C@]12CC[C@H]3[C@@H](CCC4=CC(=O)CC[C@@H]43)[C@@H]1C[C@H](C1CCCCC1)[C@@H]2O` [16β-cyclohexyl-17β-hydroxyestr-4-en-3-one], in the data set with anti-androgenic activity, the “effectiveness by oral administration” value is given as “little effective by oral administration”.
With `CC[C@H]1C[C@H]2[C@@H]3CCC4=CC(=O)CC[C@@H]4[C@H]3CC[C@]2(C)[C@H]1O` [16β-ethyl-17β-hydroxyestr-4-en-3-one], in the data set with anti-androgenic activity, the “effectiveness by oral administration” value was “little effective by oral administration”.
For `CCCCCC(=O)O[C@]1(C(C)=O)CC[C@H]2[C@@H]3CCC4=CC(=O)CC[C@@H]4[C@H]3CC[C@@]21C` [17α-caproyloxy-19-norprogesterone], in the data set on liver, the side effect result is “causes `fatty liver` as a side effect”.
Consider `CC[C@H]1C[C@H]2[C@@H]3CCC4=CC(=O)CC[C@@H]4[C@H]3CC[C@]2(C)[C@H]1OC(C)=O` [17β-acetyloxy-16β-ethylestr-4-en-3-one], for which, in the data set with anti-androgenic activity, the “effectiveness by oral administration” value was “little effective by oral administration”.
For `CC1=C[C@H]2[C@@H]3CCC[C@@]3(C)CC[C@@H]2[C@@]2(C)CCC(=O)C=C12` [test compound, 6-methylandrosta-4,6-dien-3-one], the “inhibition of weight increases of secondary sex structures / anti-androgenic activity (in words)” value in data set [1] (oral, caused by testosterone propionate) is “significantly inhibits the weight increases of various secondary sex structures; also recorded: the degree of inhibition (percent inhibition) being proportional to the dosage; also recorded: potent anti-androgenic activity”. Further, in data set [1] (setting [2]), the “Percent inhibition: Dorsal prostate” value worked out at 38%, the “Percent inhibition: Seminal vesicles” value was determined as 53%, the “Percent inhibition: Ventral prostate” value was determined as 34% and the “Weight of organs: Dorsal prostate” value stood at 62 ± 3 mg. Further, in data set [1] (setting [2]), the “Weight of organs: Seminal vesicles” value was 164 ± 15 mg and the “Weight of organs: Ventral prostate” value is 100 ± 4 mg. Besides, in data set [1] (setting [3]), the “Percent inhibition: Dorsal prostate” value amounted to 59%, the “Percent inhibition: Seminal vesicles” value worked out at 77%, the “Percent inhibition: Ventral prostate” value was 53% and the “Weight of organs: Dorsal prostate” value is 44 ± 2 mg. In data set [1] (setting [3]), the “Weight of organs: Seminal vesicles” value was found to be 82 ± 5 mg and the “Weight of organs: Ventral prostate” value came out at 74 ± 4 mg.
Regarding `CCC(=O)O[C@H]1CC[C@H]2[C@@H]3CCC4=CC(=O)CC[C@]4(C)[C@H]3CC[C@]12C` [testosterone propionate, reference compound], in data set [1] (setting [4]), the “Weight of organs: Dorsal prostate” value is 96 ± 3 mg, the “Weight of organs: Seminal vesicles” value is 337 ± 27 mg and the “Weight of organs: Ventral prostate” value worked out at 147 ± 7 mg.
